Reference: patent publication US12703729B2, “GIP agonist compounds and methods” (Zealand Pharma A/S, priority 2014, dated 2026)
Starred links: 1 amine or outer side, 2 acyl side, 3 side chain; linkers in the order of their positions; H or OH if unused. Non-standard residues stand in square brackets, D forms with d. Residues, ends and D or L forms follow the SMILES beside them. Groups on a side chain read outwards from the residue. *: point of attachment. X1 = O=C(O)CCCCCCCCCCCCCCCCCCC(=O)N1CCN(CC(=O)*)CC1; C20 diacid = O=C(O)CCCCCCCCCCCCCCCCCCC(=O)*; γGlu = O=C(O)[C@H](CCC(=O)[*:2])N[*:1]; AEEA = NCCOCCOCC(=O)O; Aib = CC(C)(N)C(=O)O

Experiments:
[1] = molecular target: human GLP-1 receptor (GLP-1R) (Homo sapiens, UniProt P43220); test: Activity assay at human GLP-1 receptor, cAMP induction (AlphaScreen), Example 3
Sequence of human GLP-1 receptor (GLP-1R) (P43220 24-463): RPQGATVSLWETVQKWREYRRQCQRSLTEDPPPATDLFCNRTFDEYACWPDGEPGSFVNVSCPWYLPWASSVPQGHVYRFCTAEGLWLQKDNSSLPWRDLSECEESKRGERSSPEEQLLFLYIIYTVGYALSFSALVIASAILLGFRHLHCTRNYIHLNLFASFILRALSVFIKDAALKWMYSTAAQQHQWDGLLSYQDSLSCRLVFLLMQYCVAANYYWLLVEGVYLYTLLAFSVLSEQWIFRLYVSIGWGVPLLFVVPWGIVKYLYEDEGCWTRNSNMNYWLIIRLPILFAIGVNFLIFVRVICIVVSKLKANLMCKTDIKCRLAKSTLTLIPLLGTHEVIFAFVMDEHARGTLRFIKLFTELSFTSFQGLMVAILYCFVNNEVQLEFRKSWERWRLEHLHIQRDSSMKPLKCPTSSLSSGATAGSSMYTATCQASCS

human GIP R = molecular target: T1, human GIP R (Homo sapiens, UniProt P48546); test: cell-based
T1 sequence (P48546 22-466): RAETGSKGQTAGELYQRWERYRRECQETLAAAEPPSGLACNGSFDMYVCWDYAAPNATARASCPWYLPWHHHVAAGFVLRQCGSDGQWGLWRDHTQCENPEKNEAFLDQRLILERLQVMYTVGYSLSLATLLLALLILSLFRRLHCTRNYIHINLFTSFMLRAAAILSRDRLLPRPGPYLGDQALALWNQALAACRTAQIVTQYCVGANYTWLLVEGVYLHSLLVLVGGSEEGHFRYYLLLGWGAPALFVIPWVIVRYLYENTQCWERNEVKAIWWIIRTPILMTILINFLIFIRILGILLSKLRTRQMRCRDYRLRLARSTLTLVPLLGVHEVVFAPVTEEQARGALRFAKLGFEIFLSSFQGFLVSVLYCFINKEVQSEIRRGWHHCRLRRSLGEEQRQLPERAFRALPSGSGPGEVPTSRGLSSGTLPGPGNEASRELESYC

[2] = molecular target: T2, human GIP receptor (GIP R) (Homo sapiens, UniProt P48546); test: Activity assay at human GIP receptor, cAMP induction (AlphaScreen), Example 3
T2 sequence (P48546 22-466): T1 sequence (P48546 22-466)

SMILES: CC[C@H](C)[C@H](NC(=O)[C@H](Cc1ccccc1)NC(=O)[C@H](C)NC(=O)[C@H](CCCNC(=N)N)NC(=O)[C@H](CCC(N)=O)NC(=O)[C@H](C)NC(=O)[C@H](CCCCNC(=O)COCCOCCNC(=O)COCCOCCNC(=O)CN1CCN(C(=O)CCCCCCCCCCCCCCCCCCC(=O)O)CC1)NC(=O)[C@H](CCCCN)NC(=O)[C@H](CC(=O)O)NC(=O)[C@H](CC(C)C)NC(=O)[C@H](CCC(=O)O)NC(=O)[C@@H](NC(=O)[C@H](CO)NC(=O)[C@H](Cc1ccc(O)cc1)NC(=O)[C@H](CC(=O)O)NC(=O)[C@H](CO)NC(=O)[C@@H](NC(=O)[C@H](Cc1ccccc1)NC(=O)[C@@H](NC(=O)CNC(=O)[C@H](CCC(=O)O)NC(=O)C(C)(C)NC(=O)[C@@H](N)Cc1ccc(O)cc1)[C@@H](C)O)[C@@H](C)CC)[C@@H](C)CC)C(=O)N[C@@H](CCC(=O)O)C(=O)N[C@@H](Cc1c[nH]c2ccccc12)C(=O)N[C@@H](CC(C)C)C(=O)N[C@@H](CC(C)C)C(=O)N[C@@H](C)C(=O)N[C@@H](CCC(N)=O)C(=O)NCC(=O)N1CCC[C@H]1C(=O)N[C@@H](CO)C(=O)N[C@@H](CO)C(=O)NCC(=O)N[C@@H](C)C(=O)N1CCC[C@H]1C(=O)N1CCC[C@H]1C(=O)N1CCC[C@H]1C(=O)N[C@@H](CO)C(N)=O [Compound 19] (H-Y[Aib]EGTFISDYSIELDKK([AEEA-AEEA-X1])AQRAFIEWLLAQGPSSGAPPPS-NH2)
- EC50 [1]: > 3000 pM
- EC50 (human GIP R): 6 pM
- EC50 [2]: 5 pM

SMILES: CC[C@H](C)[C@H](NC(=O)[C@H](CO)NC(=O)[C@H](Cc1ccc(O)cc1)NC(=O)[C@H](CC(=O)O)NC(=O)[C@H](CO)NC(=O)[C@@H](NC(=O)[C@H](Cc1ccccc1)NC(=O)[C@@H](NC(=O)CNC(=O)[C@H](CCC(=O)O)NC(=O)C(C)(C)NC(=O)[C@@H](N)Cc1ccc(O)cc1)[C@@H](C)O)[C@@H](C)CC)C(=O)N[C@@H](CCC(=O)O)C(=O)N[C@@H](CC(C)C)C(=O)N[C@@H](CC(=O)O)C(=O)N[C@@H](CCCCN)C(=O)N[C@@H](CCCCNC(=O)COCCOCCNC(=O)COCCOCCNC(=O)CN1CCN(C(=O)CCCCCCCCCCCCCCCCCCC(=O)O)CC1)C(=O)N[C@@H](C)C(=O)N[C@@H](CCC(N)=O)C(=O)N[C@@H](CCCNC(=N)N)C(=O)N[C@@H](C)C(=O)N[C@@H](Cc1ccccc1)C(=O)N[C@H](C(=O)N[C@@H](CCC(=O)O)C(=O)N[C@@H](Cc1c[nH]c2ccccc12)C(=O)N[C@@H](CC(C)C)C(=O)N[C@@H](CC(C)C)C(=O)N[C@@H](C)C(=O)N[C@@H](CCC(N)=O)C(=O)NCC(=O)N1CCC[C@H]1C(=O)N[C@@H](CO)C(=O)N[C@@H](CO)C(=O)NCC(=O)N[C@@H](C)C(=O)N1CCC[C@H]1C(=O)N1CCC[C@H]1C(=O)N1CCC[C@H]1C(=O)N[C@@H](CO)C(N)=O)C(C)C [Compound 20] (H-Y[Aib]EGTFISDYSIELDKK([AEEA-AEEA-X1])AQRAFVEWLLAQGPSSGAPPPS-NH2)
- EC50 [1]: > 3000 pM
- EC50 (human GIP R): 7 pM
- EC50 [2]: 6 pM

SMILES: CC[C@H](C)[C@H](NC(=O)[C@H](CO)NC(=O)[C@H](Cc1ccc(O)cc1)NC(=O)[C@H](CC(=O)O)NC(=O)[C@H](CO)NC(=O)[C@@H](NC(=O)[C@H](Cc1ccccc1)NC(=O)[C@@H](NC(=O)CNC(=O)[C@H](CCC(=O)O)NC(=O)C(C)(C)NC(=O)[C@@H](N)Cc1ccc(O)cc1)[C@@H](C)O)[C@@H](C)CC)C(=O)N[C@@H](CCC(=O)O)C(=O)N[C@@H](CC(C)C)C(=O)N[C@@H](CC(=O)O)C(=O)N[C@@H](CCCCN)C(=O)N[C@@H](CCCCNC(=O)COCCOCCNC(=O)COCCOCCNC(=O)CC[C@H](NC(=O)CCCCCCCCCCCCCCCCCCC(=O)O)C(=O)O)C(=O)N[C@@H](C)C(=O)N[C@@H](CCC(N)=O)C(=O)N[C@@H](CCCCN)C(=O)N[C@@H](CCC(=O)O)C(=O)N[C@@H](Cc1ccccc1)C(=O)N[C@H](C(=O)N[C@@H](CCC(=O)O)C(=O)N[C@@H](Cc1c[nH]c2ccccc12)C(=O)N[C@@H](CC(C)C)C(=O)N[C@@H](CC(C)C)C(=O)N[C@@H](C)C(=O)N[C@@H](C)C(=O)NCC(=O)N1CCC[C@H]1C(=O)N[C@@H](CO)C(=O)N[C@@H](CO)C(=O)NCC(=O)N[C@@H](C)C(=O)N1CCC[C@H]1C(=O)N1CCC[C@H]1C(=O)N1CCC[C@H]1C(=O)N[C@@H](CO)C(N)=O)C(C)C [Compound 22] (H-Y[Aib]EGTFISDYSIELDKK([AEEA-AEEA-γGlu-C20 diacid])AQKEFVEWLLAAGPSSGAPPPS-NH2)
- EC50 [1]: > 10000 pM
- EC50 (human GIP R): 5 pM
- EC50 [2]: 7 pM

SMILES: CC[C@H](C)[C@H](NC(=O)[C@H](CCCCN)NC(=O)[C@H](CC(=O)O)NC(=O)[C@H](CC(C)C)NC(=O)[C@H](CCC(=O)O)NC(=O)[C@@H](NC(=O)[C@H](CO)NC(=O)[C@H](Cc1ccc(O)cc1)NC(=O)[C@H](CC(=O)O)NC(=O)[C@H](CO)NC(=O)[C@@H](NC(=O)[C@H](Cc1ccccc1)NC(=O)[C@@H](NC(=O)CNC(=O)[C@H](CCC(=O)O)NC(=O)C(C)(C)NC(=O)[C@@H](N)Cc1ccc(O)cc1)[C@@H](C)O)[C@@H](C)CC)[C@@H](C)CC)C(=O)N[C@@H](C)C(=O)N[C@@H](CCC(N)=O)C(=O)N[C@@H](CCCNC(=N)N)C(=O)N[C@@H](C)C(=O)N[C@@H](Cc1ccccc1)C(=O)N[C@H](C(=O)N[C@@H](CCC(=O)O)C(=O)N[C@@H](Cc1c[nH]c2ccccc12)C(=O)N[C@@H](CC(C)C)C(=O)N[C@@H](CC(C)C)C(=O)N[C@@H](C)C(=O)NCC(=O)N1CCC[C@H]1C(=O)N[C@@H](CO)C(=O)N[C@@H](CO)C(=O)NCC(=O)N[C@@H](C)C(=O)N1CCC[C@H]1C(=O)N1CCC[C@H]1C(=O)N1CCC[C@H]1C(=O)N[C@@H](CO)C(=O)N[C@@H](CCCCNC(=O)COCCOCCNC(=O)COCCOCCNC(=O)CC[C@H](NC(=O)CCCCCCCCCCCCCCCCCCC(=O)O)C(=O)O)C(N)=O)[C@@H](C)CC [Compound 23] (H-Y[Aib]EGTFISDYSIELDKIAQRAFIEWLLAGPSSGAPPPSK([AEEA-AEEA-γGlu-C20 diacid])-NH2)
- EC50 [1]: > 10000 pM
- EC50 (human GIP R): 10 pM
- EC50 [2]: 5 pM

SMILES: CC[C@H](C)[C@H](NC(=O)[C@H](CCCCN)NC(=O)[C@H](CC(=O)O)NC(=O)[C@H](CC(C)C)NC(=O)[C@H](CCC(=O)O)NC(=O)[C@@H](NC(=O)[C@H](CO)NC(=O)[C@H](Cc1ccc(O)cc1)NC(=O)[C@H](CC(=O)O)NC(=O)[C@H](CO)NC(=O)[C@@H](NC(=O)[C@H](Cc1ccccc1)NC(=O)[C@@H](NC(=O)CNC(=O)[C@H](CCC(=O)O)NC(=O)C(C)(C)NC(=O)[C@@H](N)Cc1ccc(O)cc1)[C@@H](C)O)[C@@H](C)CC)[C@@H](C)CC)C(=O)N[C@@H](C)C(=O)N[C@@H](CCC(N)=O)C(=O)N[C@@H](CCCCN)C(=O)N[C@@H](CCC(=O)O)C(=O)N[C@@H](Cc1ccccc1)C(=O)N[C@H](C(=O)N[C@@H](CCC(=O)O)C(=O)N[C@@H](Cc1c[nH]c2ccccc12)C(=O)N[C@@H](CC(C)C)C(=O)N[C@@H](CC(C)C)C(=O)N[C@@H](C)C(=O)NCC(=O)N1CCC[C@H]1C(=O)N[C@@H](CO)C(=O)N[C@@H](CO)C(=O)NCC(=O)N[C@@H](C)C(=O)N1CCC[C@H]1C(=O)N1CCC[C@H]1C(=O)N1CCC[C@H]1C(=O)N[C@@H](CO)C(=O)N[C@@H](CCCCNC(=O)COCCOCCNC(=O)COCCOCCNC(=O)CC[C@H](NC(=O)CCCCCCCCCCCCCCCCCCC(=O)O)C(=O)O)C(N)=O)[C@@H](C)CC [Compound 24] (H-Y[Aib]EGTFISDYSIELDKIAQKEFIEWLLAGPSSGAPPPSK([AEEA-AEEA-γGlu-C20 diacid])-NH2)
- EC50 [1]: > 10000 pM
- EC50 (human GIP R): 8 pM
- EC50 [2]: 10 pM

SMILES: CC[C@H](C)[C@H](NC(=O)[C@H](CCCCN)NC(=O)[C@H](CC(=O)O)NC(=O)[C@H](CC(C)C)NC(=O)[C@H](CCC(=O)O)NC(=O)[C@@H](NC(=O)[C@H](CO)NC(=O)[C@H](Cc1ccc(O)cc1)NC(=O)[C@H](CC(=O)O)NC(=O)[C@H](CO)NC(=O)[C@@H](NC(=O)[C@H](Cc1ccccc1)NC(=O)[C@@H](NC(=O)CNC(=O)[C@H](CCC(=O)O)NC(=O)C(C)(C)NC(=O)[C@@H](N)Cc1ccc(O)cc1)[C@@H](C)O)[C@@H](C)CC)[C@@H](C)CC)C(=O)N[C@@H](C)C(=O)N[C@@H](C)C(=O)N[C@@H](CCC(N)=O)C(=O)N[C@@H](CC(=O)O)C(=O)N[C@@H](Cc1ccccc1)C(=O)N[C@H](C(=O)N[C@@H](CCC(=O)O)C(=O)N[C@@H](Cc1c[nH]c2ccccc12)C(=O)N[C@@H](CC(C)C)C(=O)N[C@@H](CC(C)C)C(=O)N[C@@H](C)C(=O)NCC(=O)N1CCC[C@H]1C(=O)N[C@@H](CO)C(=O)N[C@@H](CO)C(=O)NCC(=O)N[C@@H](C)C(=O)N1CCC[C@H]1C(=O)N1CCC[C@H]1C(=O)N1CCC[C@H]1C(=O)N[C@@H](CO)C(=O)N[C@@H](CCCCNC(=O)COCCOCCNC(=O)COCCOCCNC(=O)CC[C@H](NC(=O)CCCCCCCCCCCCCCCCCCC(=O)O)C(=O)O)C(N)=O)[C@@H](C)CC [Compound 25] (H-Y[Aib]EGTFISDYSIELDKIAAQDFIEWLLAGPSSGAPPPSK([AEEA-AEEA-γGlu-C20 diacid])-NH2)
- EC50 [1]: > 100000 pM
- EC50 (human GIP R): 32 pM
- EC50 [2]: 8 pM
